Laboratory results from patent US10239884B2, “Coelenterazine compounds and uses thereof” (KEIO UNIVERSITY, priority 2017, dated 2019).

What was measured:
RLuc8 [1] = molecular target: T1, RLuc8 (Renilla reniformis, UniProt P27652, A143M/A55T/C124A/K136R/M185V/M253L/S130A/S287L); format: biochemical; conditions: 2 μM substrate in PBS pH 7.4, cell lysate, maximum intensity over 1 second, relative value
T1 construct: expressed in transfected cells; host or cells: COST cells (so in the source)
Description: (§1) The luciferases were respectively expressed in COST cells using an expression vector (pcDNA3.1(+), commercially available from Invitrogen) comprising the sequence encoding native Renilla Luciferase (RLuc) (trade name pGL4.75, commercially available from Promega) or an expression vector (trade name pcDNA3.1(+), commercially available from Invitrogen) comprising the sequence encoding a RLuc derivative RLuc8 or RLuc8.6-535 (Reference: Loening, A. M. et al., Nat. Methods, 2007, 4, 641-643.). The cells were lysed using a Renilla Luciferase Lysis Buffer (E291A, Promega), and the lysate was directly used as an enzyme solution. […] Bioluminescence was measured according to the protocol of Renilla Luciferase Assay System (Cat. No. E 2810; Promega). The luminescent substrate was dissolved in methanol to prepare a 2 mM solution. The solution was diluted to 2 μM with PBS buffer (pH 7.4), and the diluted solution was used as a substrate solution. To 200 μL of the substrate solution, 4 μL of the cell lysate containing RLuc, RLuc 8 or RLuc8.6-535 was added to start the luminescent reaction. The luminescence intensity was measured with a Berthold Lumat LB 9507 for 1 second, and indicated by the maximum luminescence intensity (I). The luminescence intensity of the native CTZ by RLuc8 was set to be 1.0, and the other bioluminescence intensities were normalized to be relative values to that of native CTZ.

[2] = molecular target: T2, native Renilla Luciferase (RLuc) (Renilla reniformis, UniProt P27652); test: Bioluminescence intensity, Renilla Luciferase luminescence system; format: biochemical; conditions: 2 μM substrate in PBS pH 7.4, cell lysate, maximum intensity over 1 second, relative value
T2 construct: expressed in transfected cells; host or cells: COST cells (so in the source)
T2 sequence (P27652 1-311): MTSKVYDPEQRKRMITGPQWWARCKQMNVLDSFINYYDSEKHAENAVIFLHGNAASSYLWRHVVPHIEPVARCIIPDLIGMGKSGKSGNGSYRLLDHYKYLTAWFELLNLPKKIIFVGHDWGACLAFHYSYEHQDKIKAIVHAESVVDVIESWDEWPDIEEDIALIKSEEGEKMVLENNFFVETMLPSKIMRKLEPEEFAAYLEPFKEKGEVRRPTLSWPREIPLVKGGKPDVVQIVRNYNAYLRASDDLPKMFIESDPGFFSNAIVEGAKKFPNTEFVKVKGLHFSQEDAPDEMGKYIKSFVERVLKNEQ
Description: as §1, with “To 200 μL of the substrate solution, 4 μL of the cell lysate containing RLuc, RLuc 8 or RLuc8.6-535 was added to start the luminescent reaction.” left out

RLuc8.6-535 [3] = molecular target: T3, RLuc8.6-535 (Renilla reniformis, UniProt P27652, A123S/A143M/A55T/C124A/D154M/D162E/E155G/I163L/K136R/M185L/M253L/S130A/S287L); format: biochemical; design: expressed in transfected cells; host or cells: COST cells (so in the source); conditions: bioluminescence spectrum, ATTO LumiFL
T3 sequence (P27652 whole entry A55T/A123S/C124A/S130A/K136R/A143M/D154M/E155G/D162E/I163L/M185L/M253L/S287L): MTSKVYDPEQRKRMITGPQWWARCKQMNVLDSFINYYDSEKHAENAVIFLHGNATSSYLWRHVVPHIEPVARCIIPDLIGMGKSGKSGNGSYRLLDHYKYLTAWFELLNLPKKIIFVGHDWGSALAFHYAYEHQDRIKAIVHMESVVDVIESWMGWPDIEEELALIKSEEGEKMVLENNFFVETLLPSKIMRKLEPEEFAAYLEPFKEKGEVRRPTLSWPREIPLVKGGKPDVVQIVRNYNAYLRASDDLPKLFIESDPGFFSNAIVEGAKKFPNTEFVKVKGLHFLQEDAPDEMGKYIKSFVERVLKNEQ
Method: (§2) As in the method for measuring bioluminescence intensity described above, luminescence spectrum was measured according to the protocol of Renilla Luciferase Assay System (Cat. No. E 2810; Promega). The luminescence spectrum was measured using ATTO LumiFL. The maximum luminescence intensities were normalized to be relative values to 1.0 upon determination of the maximum luminescence wavelength.

RLuc8.6-535 [4] = molecular target: T3, RLuc8.6-535; format: biochemical; design: expressed in transfected cells; host or cells: COST cells (so in the source); conditions: for RLuc8.6-535 luminescence intensity (%): 2 μM substrate in PBS pH 7.4, cell lysate, maximum intensity over 1 second, relative value
Description: as §1

RLuc8 [5] = molecular target: T1, RLuc8; format: biochemical; conditions: bioluminescence spectrum, ATTO LumiFL
Method: as §2

ALuc30 = test: Bioluminescence intensity, ALuc system test; format: biochemical; conditions: 1 μM substrate, relative to nCTZ/ALuc34
RLuc8.6-535 [6] = molecular target: T3, RLuc8.6-535; test: Bioluminescence intensity, ALuc system test; format: biochemical; design: expressed in transfected cells; conditions: 1 μM substrate, relative to nCTZ/ALuc34
Method: (§3) The cells were lysed using a Renilla Luciferase Buffer (E291A; Promega), and the lysate was directly used as an enzyme solution. As luminescent substrates, native CTZ (Nanolight technology) and 6-Al2N3-CTZ (Example 17) were used. Bioluminescence was measured according to the protocol of a Renilla Luciferase Assay System (Cat. No. E2810; Promega). The luminescent substrate was dissolved in methanol to prepare a 1 mM solution. The solution was diluted to 1 μM with Promega buffer, and the diluted solution was used as a substrate solution. To 40 μL of the substrate solution, 10 μL of the cell lysate containing RLuc8.6-535, ALuc16, ALuc22, ALuc23 or ALuc34 was added for starting the luminescent reaction. Using Fujifilm LAS-4000, the luminescence intensities were measured 0 and 20 minutes after the start of the enzyme reaction. Further, from the results of bioluminescence intensity shown in FIG. 3, the bioluminescence intensities were summarized in Tables 4-1 and 4-2 below, where the luminescence intensities were normalized to be the relative values of nCTZ/ALuc34 (100%).

ALuc24 = test: Bioluminescence intensity, ALuc system test; format: biochemical; conditions: 1 μM substrate, relative to nCTZ/ALuc34
ALuc16 = test: Bioluminescence intensity, ALuc system test; format: biochemical; conditions: 1 μM substrate, relative to nCTZ/ALuc34
Method: as §3

ALuc22 = test: Bioluminescence intensity, ALuc system test; format: biochemical; conditions: 1 μM substrate, relative to nCTZ/ALuc34
Method: as §3

ALuc34 = test: Bioluminescence intensity, ALuc system test; format: biochemical; conditions: for luminescence intensity (%): 1 μM substrate, relative to nCTZ/ALuc34
Method: as §3

ALuc23 = test: Bioluminescence intensity, ALuc system test; format: biochemical; conditions: 1 μM substrate, relative to nCTZ/ALuc34
Method: as §3

NanoLuc = molecular target: T4, NanoLuc (Oplophorus gracilirostris, UniProt Q9GV45, A31E/A60N/A81I/F95D/I117V/K70R/L54V/L99Q/M102K/N193R/P142E/Q151K/Q38R/Q45L/V71I/Y165I); conditions: combined with NanoLuc; cited from earlier work
T4 construct: literature Promega
T4 sequence (Q9GV45 28-196 with tags or gaps with the stated changes limits assumed): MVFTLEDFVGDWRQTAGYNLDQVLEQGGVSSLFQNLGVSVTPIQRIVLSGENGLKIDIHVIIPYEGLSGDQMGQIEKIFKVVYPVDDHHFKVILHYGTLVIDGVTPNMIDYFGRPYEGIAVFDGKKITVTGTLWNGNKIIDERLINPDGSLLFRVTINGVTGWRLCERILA

[7] = tested on: artificial bioluminescent enzyme (ALuc); conditions: same wavelength range (480-500 nm); cited from earlier work
[8] = molecular target: T5, Renilla Luciferase (RLuc) (Renilla reniformis, UniProt P27652); conditions: CTZ as luminescent substrate; cited from earlier work
T5 sequence (P27652 1-311): T2 sequence (P27652 1-311)

GLuc = test: Bioluminescence intensity, ALuc system test; format: biochemical; conditions: 0 minutes after the start of measurement, 1 μM substrate, relative to nCTZ/ALuc34
[9] = ALuc30, 0 minutes after the start of measurement
[10] = ALuc30, 20 minutes after the start of measurement
[11] = RLuc8.6-535, 0 minutes after the start of measurement
[12] = ALuc24, 0 minutes after the start of measurement
[13] = ALuc24, 20 minutes after the start of measurement
[14] = ALuc16, 0 minutes after the start of measurement
[15] = ALuc16, 20 minutes after the start of measurement
[16] = ALuc22, 0 minutes after the start of measurement
[17] = ALuc22, 20 minutes after the start of measurement
[18] = ALuc34, 0 minutes after the start of measurement
[19] = ALuc34, 20 minutes after the start of measurement
[20] = ALuc23, 0 minutes after the start of measurement
[21] = ALuc23, 20 minutes after the start of measurement

T1 sequence (P27652 whole entry A55T/C124A/S130A/K136R/A143M/M185V/M253L/S287L): as the sequence (P27652 whole entry A55T/A123S/C124A/S130A/K136R/A143M/D154M/E155G/D162E/I163L/M185L/M253L/S287L) above, with S123A, M154D, G155E, E162D, L163I, L185V counted along it

Structure (SMILES)	RLuc8 luminescence intensity (%) (RLuc8 [1])	RLuc luminescence intensity (%) [2] [%]	RLuc8.6-535 half-width (nm) (RLuc8.6-535 [3])	RLuc8.6-535 maximum luminescence wavelength (nm) (RLuc8.6-535 [3])	RLuc8.6-535 luminescence intensity (%) (RLuc8.6-535 [4])	RLuc8 half-width (nm) (RLuc8 [5])	RLuc8 maximum luminescence wavelength (nm) (RLuc8 [5])	luminescence intensity (%) (ALuc30; [9])	luminescence intensity (%) (ALuc30; [10])	luminescence intensity (%) (RLuc8.6-535 [6]; [11])	luminescence intensity (%) (ALuc24; [12])	luminescence intensity (%) (ALuc24; [13])	luminescence intensity (%) (ALuc16; [14])	luminescence intensity (%) (ALuc16; [15])	luminescence intensity (%) (ALuc22; [16])	luminescence intensity (%) (ALuc22; [17])	luminescence intensity (%) (ALuc34; [18])	luminescence intensity (%) (ALuc34; [19])	luminescence intensity (%) (ALuc23; [20])	luminescence intensity (%) (ALuc23; [21])	further results
O=c1c(Cc2ccc(O)cc2)nc2c(Cc3ccccc3)[nH]c(-c3ccc(OCCCO)cc3)cn1-2 [6-Alkyl3OH-CTZ]	9.74	0.11	[56] nm	415	75.3	[60] nm	414	–	–	–	–	–	–	–	–	–	–	–	–	–	luminescence intensity higher than that of DeepBlueC/RLuc8 (RLuc8.6-535 [4]; with RLuc8.6-535, versus conventional blue-shifted RLuc luminescence system (DeepBlueC/RLuc8)): 32 fold
[N-]=[N+]=NCCOc1ccc(-c2cn3c(=O)c(Cc4ccc(O)cc4)nc-3c(Cc3ccccc3)[nH]2)cc1 [Example 6-Al2N3-CTZ]	–	–	–	–	–	–	–	0.83	0.28	0.01	0.56	0.17	1.72	0.60	1.32	0.46	3.45	1.27	2.53	1.00	luminescence intensity higher than that of native CTZ/ALuc34 (ALuc34; with ALuc34, immediately after the start of the measurement): about 3.4 fold
O=c1c(Cc2ccco2)nc2c(Cc3ccccc3)[nH]c(-c3ccccc3)cn1-2 [Furimazine]	–	–	–	–	–	–	–	–	–	–	–	–	–	–	–	–	–	–	–	–	luminescence intensity higher than that of the firefly luciferase luminescence system (NanoLuc): about 100 fold
Oc1ccc(Cc2nc3c(Cc4ccccc4)nc(-c4ccc(O)cc4)cn3c2O)cc1 [Native-CTZ, coelenterazine]	80.5	10.7	[111] nm	538	100	[98] nm	484	0.28	0.21	0.05	0.40	0.31	0.43	0.42	0.65	0.42	1.0	1	0.58	0.58	luminescence intensity higher than that of the conventional RLuc luminescence system [7]: about 50 fold; quantum yield of the RLuc luminescence system [8]: 0.05; luminescence intensity (%) (RLuc8.6-535 [6]; RLuc8.6-535, 20 minutes after the start of measurement): 0.05%; luminescence intensity (%) (GLuc): 0.08%
